The structures appear in SMILES notation.

Chain of Substance-P receptor (P25103 whole entry): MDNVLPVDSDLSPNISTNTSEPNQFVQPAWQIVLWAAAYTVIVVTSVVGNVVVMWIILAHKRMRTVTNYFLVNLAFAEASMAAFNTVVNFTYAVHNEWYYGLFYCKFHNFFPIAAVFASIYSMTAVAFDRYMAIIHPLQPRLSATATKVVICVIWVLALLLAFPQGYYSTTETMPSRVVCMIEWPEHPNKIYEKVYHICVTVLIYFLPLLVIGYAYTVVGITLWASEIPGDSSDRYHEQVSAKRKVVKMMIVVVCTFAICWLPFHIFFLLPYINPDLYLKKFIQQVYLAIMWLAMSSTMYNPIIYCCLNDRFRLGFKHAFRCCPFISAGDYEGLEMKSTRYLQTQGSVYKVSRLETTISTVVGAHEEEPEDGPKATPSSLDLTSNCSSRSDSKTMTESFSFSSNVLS

The target of the first test is T1, Gastrin/cholecystokinin type B receptor (Mus musculus, UniProt P56481).
T1 sequence (P56481 whole entry): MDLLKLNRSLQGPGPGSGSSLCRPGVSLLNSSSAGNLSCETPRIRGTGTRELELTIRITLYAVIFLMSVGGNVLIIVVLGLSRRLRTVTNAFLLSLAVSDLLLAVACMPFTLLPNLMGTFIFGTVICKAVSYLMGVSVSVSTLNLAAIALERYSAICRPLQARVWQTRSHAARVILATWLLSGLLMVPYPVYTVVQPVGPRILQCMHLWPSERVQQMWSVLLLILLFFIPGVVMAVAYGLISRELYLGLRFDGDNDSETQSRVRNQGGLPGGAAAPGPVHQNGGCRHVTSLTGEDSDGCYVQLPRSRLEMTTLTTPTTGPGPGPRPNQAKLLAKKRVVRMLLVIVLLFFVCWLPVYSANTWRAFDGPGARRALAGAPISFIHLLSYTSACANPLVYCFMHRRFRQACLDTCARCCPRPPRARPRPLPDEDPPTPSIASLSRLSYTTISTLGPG
The test can be described thus: Concentration required for binding affinity to neuropeptide (CCK-B) receptor in mouse cerebral cortex. Type of test: tissue-based.
As to `CC(C)CCNC(=O)[C@H](Cc1c[nH]c2ccccc12)NC(=O)OCc1ccccc1`, the IC50 was determined as 2.12 µM.

The target in another test is Neuromedin-B receptor (Homo sapiens, UniProt P28336). The test can be described thus: Binding affinity for human neuromedin B(hNMB) receptor expressed in CHO cells. Type of test: cell-based.
Chain of Neuromedin-B receptor (P28336 whole entry): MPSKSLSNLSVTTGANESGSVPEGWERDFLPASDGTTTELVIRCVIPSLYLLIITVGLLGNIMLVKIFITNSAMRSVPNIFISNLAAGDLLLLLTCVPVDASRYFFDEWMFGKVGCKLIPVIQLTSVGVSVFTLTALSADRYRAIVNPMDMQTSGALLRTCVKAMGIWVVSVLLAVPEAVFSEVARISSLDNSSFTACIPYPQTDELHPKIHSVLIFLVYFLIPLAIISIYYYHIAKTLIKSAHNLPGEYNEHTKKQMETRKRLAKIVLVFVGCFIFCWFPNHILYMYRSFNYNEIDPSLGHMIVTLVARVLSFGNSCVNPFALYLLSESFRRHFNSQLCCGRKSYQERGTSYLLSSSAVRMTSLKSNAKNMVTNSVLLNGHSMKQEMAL
`CC(C)OC(=O)N[C@@H](Cc1c[nH]c2ccccc12)C(=O)NCCc1c[nH]c2ccccc12` displayed an inhibition constant (Ki) of over 10 µM.
As to `CC(C)OC(=O)N[C@@H](Cc1c[nH]c2ccccc12)C(=O)NCCCCCN`, the Ki was over 10 µM.
Compound `CC(C)CNC(=O)[C@H](Cc1c[nH]c2ccccc12)NC(=O)OC(C)C` came in with an inhibition constant (Ki) of over 10 µM.
With `CC(C)CNC(=O)[C@H](Cc1c[nH]c2ccccc12)NC(=O)OCc1c[nH]cn1`, the Ki was over 10 µM.
For `NCCCCCNC(=O)[C@H](Cc1c[nH]c2ccccc12)NC(=O)OCCc1c[nH]c2ccccc12`, affinity was put at a Ki of 7.8 µM.
The compound `CC(C)CNC(=O)[C@H](Cc1c[nH]c2ccccc12)NC(=O)OCCc1c[nH]c2ccccc12` gave a Ki of 3.5 µM.
`COC(=O)N[C@@H](Cc1c[nH]c2ccccc12)C(=O)NCCO` registered an inhibitory constant (Ki) of over 10 µM.
The compound `NCCCCOC(=O)N[C@@H](Cc1c[nH]c2ccccc12)C(=O)NCCC(=O)O` showed a Ki of over 10 µM.
For the compound `CC(C)COC(=O)N[C@@H](Cc1c[nH]c2ccccc12)C(=O)NCCc1c[nH]c2ccccc12`, the affinity corresponds to a Ki of 4.7 µM.
`O=C(O)COC(=O)N[C@@H](Cc1c[nH]c2ccccc12)C(=O)NCCc1c[nH]c2ccccc12` yielded a Ki of over 10 µM.
The compound `CC(C)CCNC(=O)C(Cc1c[nH]c2ccccc12)NC(=O)OCc1c[nH]cn1` (centres undefined) returned a Ki of 3.9 µM.
Still for that read-out and setting: with `CC(C)CNC(=O)[C@H](Cc1c[nH]c2ccccc12)NC(=O)OCC(C)C` the figure was over 10 µM; with `NCCCCCNC(=O)[C@H](Cc1c[nH]c2ccccc12)NC(=O)OCc1ccccc1`, over 10 µM.
For the compound `CC(C)OC(=O)N[C@@H](Cc1c[nH]c2ccccc12)C(=O)NCCO`, the Ki was over 10 µM.
`CC(C)COC(=O)N[C@@H](Cc1c[nH]c2ccccc12)C(=O)NCCc1ccccc1` showed a Ki of 4.3 µM.
The same measure, in the same setting: as for `COC(=O)N[C@@H](Cc1c[nH]c2ccccc12)C(=O)NCC(C)C`, the figure is over 10 µM.
As for `CC(C)CCNC(=O)[C@H](Cc1c[nH]c2ccccc12)NC(=O)OCCCCN`, the Ki is over 10 µM.
The compound `COC(=O)N[C@@H](Cc1c[nH]c2ccccc12)C(=O)NCCc1ccccc1` came in with a Ki of over 10 µM.
In turn, `O=C(N[C@@H](Cc1c[nH]c2ccccc12)C(=O)NCCc1c[nH]cn1)OCc1ccccc1` yielded an inhibition constant Ki of over 10 µM.
In turn, `O=C(N[C@@H](Cc1c[nH]c2ccccc12)C(=O)NCCc1c[nH]c2ccccc12)OCCc1c[nH]c2ccccc12` displayed a Ki of 0.98 µM.
`COC(=O)N[C@@H](Cc1c[nH]c2ccccc12)C(=O)NCCc1c[nH]c2ccccc12` came in with an inhibition constant (Ki) of over 10 µM.
Same read-out and setting: with `NCCCCCNC(=O)[C@H](Cc1c[nH]c2ccccc12)NC(=O)OCC(=O)O` the figure was over 10 µM; with `COC(=O)N[C@@H](Cc1c[nH]c2ccccc12)C(=O)NCCC(=O)O`, over 10 µM.
Still for that read-out and setting: with `O=C(N[C@@H](Cc1c[nH]c2ccccc12)C(=O)NCCO)OCCc1c[nH]c2ccccc12` the figure was over 10 µM; with `CC(C)CNC(=O)[C@H](Cc1c[nH]c2ccccc12)NC(=O)OCC(=O)O`, over 10 µM.
Consider `CC(C)CNC(=O)[C@H](Cc1c[nH]c2ccccc12)NC(=O)OCCCCN`, for which the Ki was over 10 µM.
`O=C(N[C@@H](Cc1c[nH]c2ccccc12)C(=O)NCCc1c[nH]c2ccccc12)OCc1c[nH]cn1` yielded a Ki of 3.7 µM.
On the same count and under the same terms, with `O=C(O)CCNC(=O)[C@H](Cc1c[nH]c2ccccc12)NC(=O)OCCc1c[nH]c2ccccc12` the figure was over 10 µM; with `O=C(N[C@@H](Cc1c[nH]c2ccccc12)C(=O)NCCc1ccccc1)OCc1c[nH]cn1`, 2.7 µM; with `CC(C)CCNC(=O)[C@H](Cc1c[nH]c2ccccc12)NC(=O)OC(C)C`, over 10 µM.
On the same count and under the same terms, as for `O=C(N[C@@H](Cc1c[nH]c2ccccc12)C(=O)NCCc1ccccc1)OCCc1c[nH]c2ccccc12`, the figure is 1.1 µM.
`O=C(O)COC(=O)N[C@@H](Cc1c[nH]c2ccccc12)C(=O)NCCc1ccccc1` yielded a Ki of over 10 µM.
Turning to `CC(C)COC(=O)N[C@@H](Cc1c[nH]c2ccccc12)C(=O)NCCCCCN`, the Ki is over 10 µM.
Turning to `CC(C)COC(=O)N[C@@H](Cc1c[nH]c2ccccc12)C(=O)NCCc1cnc[nH]1`, the inhibition constant Ki is over 10 µM.
`CC(C)CCNC(=O)[C@H](Cc1c[nH]c2ccccc12)NC(=O)OCCc1c[nH]c2ccccc12`: the inhibition constant Ki is 2.7 µM.
Compound `CC(C)OC(=O)N[C@@H](Cc1c[nH]c2ccccc12)C(=O)NCCc1c[nH]cn1` gave an inhibitory constant (Ki) of over 10 µM.
Compound `CC(C)COC(=O)N[C@@H](Cc1c[nH]c2ccccc12)C(=O)NCCO` registered a Ki of over 10 µM.
In the case of `O=C(N[C@@H](Cc1c[nH]c2ccccc12)C(=O)NCCc1ccccc1)OCc1ccccc1`, the affinity corresponds to a Ki of 2.6 µM.
In the case of `CC(C)CCNC(=O)[C@H](Cc1c[nH]c2ccccc12)NC(=O)OCC(=O)O`, the Ki was over 10 µM.
Still for that read-out and setting: with `CC(C)CNC(=O)[C@H](Cc1c[nH]c2ccccc12)NC(=O)OCc1ccccc1` the figure was over 10 µM; with `CC(C)CCNC(=O)[C@H](Cc1c[nH]c2ccccc12)NC(=O)OCc1ccccc1`, 6.1 µM.
Consider `COC(=O)N[C@@H](Cc1c[nH]c2ccccc12)C(=O)NCCCCCN`, for which the inhibition constant Ki is over 10 µM.
`NCCCCOC(=O)N[C@@H](Cc1c[nH]c2ccccc12)C(=O)NCCO` returned an inhibition constant (Ki) of over 10 µM.
Same read-out and setting: as for `CC(C)CCNC(=O)[C@H](Cc1c[nH]c2ccccc12)NC(=O)OCc1cnc[nH]1`, the figure is 3.9 µM; as for `O=C(N[C@@H](Cc1c[nH]c2ccccc12)C(=O)NCCO)OCc1ccccc1`, over 10 µM.
The compound `O=C(N[C@@H](Cc1c[nH]c2ccccc12)C(=O)NCCc1c[nH]cn1)OCCc1c[nH]c2ccccc12` gave an inhibition constant (Ki) of 5 µM.
`CC(C)OC(=O)N[C@@H](Cc1c[nH]c2ccccc12)C(=O)NCCc1ccccc1`: the inhibition constant (Ki) was over 10 µM.
`O=C(O)CCNC(=O)[C@H](Cc1c[nH]c2ccccc12)NC(=O)OCc1ccccc1` gave an inhibition constant (Ki) of over 10 µM.
The same measure, in the same setting: with `NCCCCOC(=O)N[C@@H](Cc1c[nH]c2ccccc12)C(=O)NCCc1cnc[nH]1` the figure was over 10 µM.
The same measure, in the same setting: with `CC(C)OC(=O)N[C@@H](Cc1c[nH]c2ccccc12)C(=O)NCCC(=O)O` the figure was over 10 µM.
Regarding `COC(=O)N[C@@H](Cc1c[nH]c2ccccc12)C(=O)NCCc1cnc[nH]1`, the Ki is over 10 µM.
Compound `O=C(O)COC(=O)N[C@@H](Cc1c[nH]c2ccccc12)C(=O)NCCO` gave a Ki of over 10 µM.
Compound `COC(=O)N[C@@H](Cc1c[nH]c2ccccc12)C(=O)NCCC(C)C` returned a Ki of over 10 µM.
The compound `CC(C)CNC(=O)C(Cc1c[nH]c2ccccc12)NC(=O)OCc1cn(C(c2ccccc2)(c2ccccc2)c2ccccc2)cn1` (centres undefined) had an inhibitory constant (Ki) of 0.037 µM.
`O=C(NC(Cc1c[nH]c2ccccc12)C(=O)NCCc1ccccc1)OCc1cnc[nH]1` (centres undefined) came in with a Ki of 2.6 µM.
Consider `CC(C)CCNC(=O)[C@H](Cc1c[nH]c2ccccc12)NC(=O)OCC(C)C`, for which the inhibitory constant (Ki) was over 10 µM.
Same read-out and setting: with `CC(C)COC(=O)N[C@@H](Cc1c[nH]c2ccccc12)C(=O)NCCC(=O)O` the figure was over 10 µM.
In turn, `NCCCCCNC(=O)[C@H](Cc1c[nH]c2ccccc12)NC(=O)OCCCCN` came in with a Ki of over 10 µM.
On the same count and under the same terms, with `NCCCCOC(=O)N[C@@H](Cc1c[nH]c2ccccc12)C(=O)NCCc1ccccc1` the figure was over 10 µM.
On to `NCCCCOC(=O)N[C@@H](Cc1c[nH]c2ccccc12)C(=O)NCCc1c[nH]c2ccccc12`, for which the affinity, expressed as Ki, was 8.9 µM.

A further test addresses T2, Substance-K receptor (Mesocricetus auratus, UniProt P51144).
T2 sequence (P51144 whole entry): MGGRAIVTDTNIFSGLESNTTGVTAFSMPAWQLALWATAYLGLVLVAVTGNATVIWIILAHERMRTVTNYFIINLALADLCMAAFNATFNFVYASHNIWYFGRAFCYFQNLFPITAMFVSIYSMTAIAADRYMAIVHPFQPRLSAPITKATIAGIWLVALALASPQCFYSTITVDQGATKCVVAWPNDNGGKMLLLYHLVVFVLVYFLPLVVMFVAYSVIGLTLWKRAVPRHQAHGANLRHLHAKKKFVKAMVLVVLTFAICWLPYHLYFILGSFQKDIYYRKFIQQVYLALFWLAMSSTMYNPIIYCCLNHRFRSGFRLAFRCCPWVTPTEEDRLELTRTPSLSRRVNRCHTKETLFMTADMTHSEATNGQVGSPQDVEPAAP
In words: Concentration required for binding affinity to neurokinin (NK2) receptor in hamster urinary bladder.
With `O=C(N[C@@H](Cc1c[nH]c2ccccc12)C(=O)NCCc1ccccc1)OCc1ccccc1`, the concentration for half-maximal inhibition (IC50) was found to be 3.27 µM.

The next test addresses Substance-P receptor (Homo sapiens, UniProt P25103). The test can be described thus: Concentration required for binding affinity to neurokinin (NK1) receptor in human IM9 cells. The test is classed as cell-based, IM-9.
Turning to `CC(C)COC(=O)N[C@@H](Cc1c[nH]c2ccccc12)C(=O)NCCc1c[nH]c2ccccc12`, the IC50 is 0.43 µM.

A further test concerns the target T3, Neuromedin-K receptor (Homo sapiens, UniProt P29371).
T3 sequence (P29371 whole entry): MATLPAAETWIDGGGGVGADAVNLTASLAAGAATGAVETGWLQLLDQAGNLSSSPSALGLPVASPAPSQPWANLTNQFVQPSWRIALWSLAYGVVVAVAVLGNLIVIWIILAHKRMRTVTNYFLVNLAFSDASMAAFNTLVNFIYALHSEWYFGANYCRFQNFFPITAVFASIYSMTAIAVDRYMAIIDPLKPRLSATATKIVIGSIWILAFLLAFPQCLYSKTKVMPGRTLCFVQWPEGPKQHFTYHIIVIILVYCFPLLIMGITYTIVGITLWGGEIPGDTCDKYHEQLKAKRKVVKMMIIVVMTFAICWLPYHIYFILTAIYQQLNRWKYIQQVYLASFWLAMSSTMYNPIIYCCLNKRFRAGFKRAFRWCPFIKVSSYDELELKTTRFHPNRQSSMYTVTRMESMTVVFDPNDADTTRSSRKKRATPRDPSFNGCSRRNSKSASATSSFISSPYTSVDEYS
The test can be described thus: Concentration required for binding affinity to Tachykinin receptor 3 in chinese hamster ovary cells. The test is classed as cell-based, CHO.
Consider `CC(C)OC(=O)N[C@@H](Cc1c[nH]c2ccccc12)C(=O)NCCc1c[nH]c2ccccc12`, for which the IC50 worked out at 9.42 µM.

The values are drawn from ChEMBL document CHEMBL1130494, “Design and synthesis of a targeted set of aromatic amino acid derivatives for identification of new lead compounds” (Bioorg Med Chem Lett, 1997).
